From patent US20130158035A1, “[…] COMPOUNDS” (Brigham Young University, priority 2010, published 2013)

test system: MDCK cells; assay: HGF-induced epithelial-mesenchymal transition / migration of MDCK cells on transwell filters (crystal violet densitometry); type: cell-based; settings: Canis lupus familiaris, MDCK, 24 h, Table 5, 10 μM compound, then HGF, percentage like untreated controls (unstimulated cells = maximal effect, HGF only = nil)
Experimental: MDCK cells were seeded at confluency into the wells of a transwell filter in DMEM with 10% fetal bovine serum. Cells were cultured for 24 hours. Test compounds, dissolved in DMSO, were added to each test well to a 10 μM final concentration, and then hepatocyte growth factor (HGF) was then added. The MDCK cells were cultured for 24 hours. Concurrently, controls treated with and without HGF and with no test compounds were also prepared.
After post-HGF addition culturing, transwell filters were prepared by repeated washing using ice cold PBS. The cells were then fixed with paraformaldehyde (3.7%) on ice for 15 minutes to the filters. After fixation, the transwell filters were washed repeatedly with PBS followed by staining with crystal violet for 15 minutes. The transwell filters were washed again with distilled water.
The upper surface of the transwell filters were swabbed using a cotton-tipped probe. The filters were photographed using a gel documentation system. Densitometry measurements were made on the test samples and compared with control samples.

SMILES	inhibition at 10 µM
Cc1cc(NC(=O)c2cccc([N+](=O)[O-])c2C)c(C)cc1I [Compound B-32]	36.1%
Cc1cc(NC(=O)c2ccc(C)c([N+](=O)[O-])c2)c(C)cc1I [Compound B-33]	56.9%
COc1ccc(C(=O)c2cc([N+](=O)[O-])ccc2N2CCOCC2)cc1 [Compound B-34]	93.4%
O=[N+]([O-])c1cccc(S(=O)(=O)Nc2ccc(Cl)c(Cl)c2)c1 [Compound B-35]	71.1%
Cc1cccc(NS(=O)(=O)c2cccc([N+](=O)[O-])c2)c1 [Compound B-36]	79.2%
Cc1cc(C)cc(NS(=O)(=O)c2cccc([N+](=O)[O-])c2)c1 [Compound B-37]	79.9%
Cc1cc(C)c(NS(=O)(=O)c2cccc([N+](=O)[O-])c2)c(C)c1 [Compound B-38]	100%
O=[N+]([O-])c1cccc(S(=O)(=O)Nc2ccc(I)cc2)c1 [Compound B-39]	89.3%
COc1cccc(C(=O)Nc2cccc(C(=O)c3ccccc3)c2)c1 [Compound B-40]	93.1%

same assay, conditions: Canis lupus familiaris, MDCK, 24 h, Table 6, 10 μM compound, then HGF, percentage like untreated controls (unstimulated cells = maximal effect, HGF only = nil)

SMILES	inhibition at 10 µM
CCOC(=O)c1[nH]c2c(c1C)C(=O)CC(c1cccc(OC)c1)C2 (stereo not drawn) [Compound C-1]	96%
CCOC(=O)c1[nH]c2c(c1C)C(=O)CC(c1cccs1)C2 (stereo not drawn) [Compound C-2]	49.7%
COC(=O)c1[nH]c2c(c1C)C(=O)CC(c1cccs1)C2 (stereo not drawn) [Compound C-3]	84.1%
CCOC(=O)c1[nH]c2c(c1C)C(=O)CC(c1ccco1)C2 (stereo not drawn) [Compound C-4]	62.2%
Cc1c(C(=O)OCc2ccccc2)[nH]c2c1C(=O)CC(c1cccs1)C2 (stereo not drawn) [Compound C-5]	41.6%
Cc1ccc(COC(=O)c2[nH]c3c(c2C)C(=O)CC(c2cccs2)C3)cc1 (stereo not drawn) [Compound C-6]	48.4%
Cc1c(C(=O)OC(C)C)[nH]c2c1C(=O)CC(c1cccs1)C2 (stereo not drawn) [Compound C-7]	35.9%
CCOC(=O)c1[nH]c2c(c1C)C(=O)CC(c1ccccc1)C2 (stereo not drawn) [Compound C-8]	30.6%
CCCc1c(C(=O)OCC)[nH]c2c1C(=O)CC(c1cccs1)C2 (stereo not drawn) [Compound C-9]	15.3%
Cc1c(C(=O)OC2CCCC2)[nH]c2c1C(=O)CC(c1cccs1)C2 (stereo not drawn) [Compound C-10]	8.8%
Cc1c(C(=O)OC2CCCCC2)[nH]c2c1C(=O)CC(c1cccs1)C2 (stereo not drawn) [Compound C-11]	< 5%
CCOC(=O)c1[nH]c2c(c1C)C(=O)CC(c1ccc(OC)cc1)C2 (stereo not drawn) [Compound C-13]	< 5%
Cc1c(C(=O)OC2CCCC2)[nH]c2c1C(=O)CC(c1ccco1)C2 (stereo not drawn) [Compound C-14]	< 5%
Cc1c(C(=O)OCc2ccccc2)[nH]c2c1C(=O)CC(c1ccco1)C2 (stereo not drawn) [Compound C-15]	< 5%
COC(=O)c1[nH]c2c(c1C)C(=O)CC(c1ccc(OC)cc1)C2 (stereo not drawn) [Compound C-16]	< 5%
Cc1c(C(=O)OCC2CCCO2)[nH]c2c1C(=O)CC(c1cccs1)C2 (stereo not drawn) [Compound C-17]	75.7%
Cc1c(C(=O)OC2CCCC2C)[nH]c2c1C(=O)CC(c1cccs1)C2 (stereo not drawn) [Compound C-18]	92.2%

same assay, conditions: Table 6; 10 μM compound, then HGF, 24 hours; percentage like untreated controls (unstimulated cells = maximal effect, HGF only = nil)

SMILES	Assay Value
Cc1c(C(=O)OC2CCCC2C)[nH]c2c1C(=O)CC(c1cccs1)C2 (stereo not drawn) [Compound C-12]	<5%
